Our source for the IC50 values is US20250092065A1, “2-(INDAZOL-5-YL)-6-(PIPERIDIN-4-YL)-1,7-NAPHTHYRIDINE DERIVATIVES AND RELATED COMPOUNDS AS MODULATORS FOR SPLICING NUCLEIC ACIDS AND FOR THE TREATMENT OF PROLIFERATIVE DISEASES” (REMIX THERAPEUTICS INC., priority 2022, published 2025).

The test system of assay [1] is Target C. The assay is described as follows: HiBiT protein abundance assay, Target C (K562 HiBiT knock-in). In kind it is cell-based, human. The following applies: HiBiT knock-in K562 cells, 24 hours, top dose 10 μM. The gist of the method:
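K562 HiBiT knock-in cells (10000/well) were treated 24 h at 37° C with a 10-point 3-fold dilution series (top 10 μM final, ≤0.25% DMSO). HiBiT luminescence was read after lytic LgBiT detection. Percent response used unmodified K562 and DMSO-treated knock-in controls, and IC50 came from a four-parameter fit at 50% of untreated.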
On the technique in general: HiBiT is a short tag that completes a luciferase, so light tracks the accessible tagged protein.

Assay [2] has as its system Target C. The experiment in a line: RT-qPCR canonical junction panel assay, Target C mRNA. In kind it is cell-based. Particulars: Table 4, read-out: Target C IC50 (decrease in CJ mRNA levels). The gist of the method:
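IC50 is the concentration giving 50% CJ decrease, from a 4-parameter logistic fit of percent response; response derived from ΔΔCt against housekeeper and DMSO over a fixed ΔCt window, with canonical exon-junction qPCR in compound-treated K562 or A673 cells.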
In general terms: Quantitative PCR measures a nucleic acid by following its amplification.

One may read the IC50 as the concentration that gives 50% inhibition. Take `Cn1cc2cc(-c3ccc4nc([C@@H]5CCNC6(CC6)C5)ccc4n3)c(O)cc2n1` (single isomer, unassigned) [Compound 495]: the IC50 in assay [1] is below 100 nM; in assay [2], 100 to 1000 nM.

On to `Cn1cc2cc(-c3ccc4nc([C@H]5CCNC6(CC6)C5)ccc4n3)c(O)cc2n1` (single isomer, unassigned) [Compound 496], for which the IC50 was below 100 nM in assay [1] and 100 to 1000 nM in assay [2].

As for `Cc1nc2cc(O)c(-c3ccc4nc([C@H]5CCNC6(CC6)C5)ccc4n3)cc2o1` (single isomer, unassigned) [Compound 497], the half-maximal inhibitory concentration (IC50) in assay [1] and in assay [2] was below 100 nM throughout.

As to `Cc1nc2cc(O)c(-c3ccc4nc([C@@H]5CCNC6(CC6)C5)ccc4n3)cc2o1` (single isomer, unassigned) [Compound 498], the IC50 was below 100 nM in assay [1] and 100 to 1000 nM in assay [2].

Regarding `CN[C@@H]1CCN(c2ccc3nc(-c4cn5cc(C)nc5c(C)c4O)ncc3n2)C1` (single isomer, unassigned) [Compound 504], the IC50 in assay [1] and in assay [2] was 100 to 1000 nM throughout.

`CNC(=O)c1nc(-c2cc3cn(C)nc3c(C)c2O)nc2ccc(N3CCN[C@@H](C)C3)cc12` (single isomer, unassigned) [Compound 512]: the IC50 in assay [1] is 100 to 1000 nM; in assay [2], 1000 to 10000 nM.

On to `CN[C@@H]1CCN(c2ccc3nc(-c4cc5cn(C)nc5c(C)c4O)ncc3c2)C1` (single isomer, unassigned) [Compound 521], for which the IC50 in assay [1] and in assay [2] was 100 to 1000 nM each time.

With `CNC(=O)c1nc(-c2cc3cn(C)nc3c(C)c2O)nc2ccc(N3C[C@@H](C)N[C@H](C)C3)cc12` (single isomer, unassigned) [Compound 653], the concentration for half-maximal inhibition (IC50) in assay [1] and in assay [2] was 100 to 1000 nM throughout.

With `Cc1c(O)c(-c2ncc3cc(N4C[C@@H](C)N[C@H](C)C4)ccc3n2)cc2cn(C)nc12` (single isomer, unassigned) [Compound 661], the IC50 in assay [1] and in assay [2] was 100 to 1000 nM in each case.

On to `CNC(=O)c1nc(-c2cc3cn(C)nc3c(F)c2O)nc2ccc(N3C[C@@H](C)N[C@H](C)C3)cc12` (single isomer, unassigned) [Compound 668], for which the IC50 in assay [1] was 100 to 1000 nM; in assay [2], 1000 to 10000 nM.

Turning to `CNC(=O)c1nc(-c2cc3cn(C)nc3c(F)c2O)nc2ccc(N3C[C@H](C)N[C@@H](C)C3)cc12` (single isomer, unassigned) [Compound 669], the IC50 lay in the range of 100 to 1000 nM in assay [1] and 1000 to 10000 nM in assay [2].

On to `CNC(=O)c1nc(-c2cc3cn(C)nc3cc2O)nc2ccc(N3C[C@H](C)N[C@@H](C)C3)cc12` (single isomer, unassigned) [Compound 676], for which the IC50 was 100 to 1000 nM in assay [1] and above 10000 nM in assay [2].

On to `CNC(=O)c1nc(-c2cc3cn(C)nc3cc2O)nc2ccc(N3C[C@@H](C)N[C@H](C)C3)cc12` (single isomer, unassigned) [Compound 677], for which the IC50 in assay [1] lay in the range of 100 to 1000 nM; in assay [2], 1000 to 10000 nM.

`Cc1cn2cc(-c3ccc4cc(N5C[C@H](C)N[C@@H](C)C5)cc(F)c4n3)cc(F)c2n1` (single isomer, unassigned) [Compound 705, 2,2,2-trifluoroacetate]: the IC50 in assay [1] and in assay [2] was 100 to 1000 nM in each case.

For `Cn1cc2cc(-c3ncc4nc(C5CCNCC5)ccc4n3)c(O)c(F)c2n1` [Compound 155], the IC50 in assay [1] is below 100 nM; in assay [2], 100 to 1000 nM.

For `Cc1nc2cc(O)c(-c3ccc4nc(N5CCNC(C(C)(C)C)C5)ccc4n3)cc2o1` (stereo not shown) [Compound 492], the IC50 in assay [1] and in assay [2] was 1000 to 10000 nM throughout.

Consider `Cc1nc2cc(O)c(-c3ccc4nc(N5CC[C@@H](N(C)C(C)(C)C)C5)ccc4n3)cc2o1` [Compound 493], for which the IC50 in assay [1] and in assay [2] was below 100 nM in each case.

As to `Cc1c(O)c(-c2nc(C(=O)N(C)C)c3cc(N4CCNCC4)ccc3n2)cc2cn(C)nc12` [Compound 502, 2-(6-hydroxy-2,7-dimethylindazol-5-yl)-N,N-dimethyl-6-(piperazin-1-yl)quinazoline-4-carboxamide], the IC50 in assay [1] and in assay [2] was 1000 to 10000 nM each time.

Regarding `CCNC(=O)c1nc(-c2cc3cn(C)nc3c(C)c2O)nc2ccc(N3CCNCC3)cc12` [Compound 503, N-ethyl-2-(6-hydroxy-2,7-dimethylindazol-5-yl)-6-(piperazin-1-yl)quinazoline-4-carboxamide], the IC50 in assay [1] and in assay [2] was 100 to 1000 nM each time.

With `CNC(=O)c1nc(-c2cc(F)c3nc(C)cn3c2)nc2ccc(N3CCNCC3)cc12` [Compound 505, 2-{8-fluoro-2-methylimidazo[1,2-a]pyridin-6-yl}-N-methyl-6-(piperazin-1-yl) quinazoline-4-carboxamide], the IC50 in assay [1] and in assay [2] was 100 to 1000 nM each time.

For the compound `CNC(=O)c1nc(-c2cc3cn(C)nc3c(F)c2O)nc2ccc(N3CCNCC3)cc12` [Compound 506, 2-(7-fluoro-6-hydroxy-2-methylindazol-5-yl)-N-methyl-6-(piperazin-1-yl)quinazoline-4-carboxamide], the 50% inhibitory concentration (IC50) in assay [1] and in assay [2] was 100 to 1000 nM throughout.

As to `CNC(=O)c1nc(-c2cc3cn(C)nc3c(C)c2O)nc2ccc(N3CCC(N(C)C)CC3)cc12` [Compound 507, 6-[4-(dimethylamino)piperidin-1-yl]-2-(6-hydroxy-2,7-dimethylindazol-5-yl)-N-methylquinazoline-4-carboxamide], the half-maximal inhibitory concentration (IC50) in assay [1] and in assay [2] was 1000 to 10000 nM in each case.

Turning to `CNc1nc(-c2cc3cn(C)nc3c(C)c2O)nc2ccc(N3CCNCC3)cc12` [Compound 508, 2,7-dimethyl-5-[4-(methylamino)-6-(piperazin-1-yl)quinazolin-2-yl]indazol-6-ol], the IC50 in assay [1] and in assay [2] was above 10000 nM each time.

Turning to `Cc1c(O)c(-c2nc(N(C)C)c3cc(N4CCNCC4)ccc3n2)cc2cn(C)nc12` [Compound 509, 5-[4-(dimethylamino)-6-(piperazin-1-yl)quinazolin-2-yl]-2,7-dimethylindazol-6-ol], the half-maximal inhibitory concentration (IC50) in assay [1] and in assay [2] was above 10000 nM throughout.

Turning to `CNC(=O)c1nc(-c2cc3cn(C)nc3c(C)c2O)nc2ccc(N3CCC(NC)C3)cc12` (stereo not shown) [Compound 510, 2-(6-hydroxy-2,7-dimethylindazol-5-yl)-N-methyl-6-[3-(methylamino)pyrrolidin-1-yl]quinazoline-4-carboxamide], the IC50 in assay [1] and in assay [2] was 100 to 1000 nM in each case.

For `CNC(=O)c1nc(-c2cc3cn(C)nc3c(C)c2O)nc2ccc(N3C[C@@H](C)N[C@@H](C)C3)cc12` [Compound 511, 6-[(3R,5S)-3,5-dimethylpiperazin-1-yl]-2-(6-hydroxy-2,7-dimethylindazol-5-yl)-N-methylquinazoline-4-carboxamide], the IC50 in assay [1] and in assay [2] was 1000 to 10000 nM throughout.

Regarding `CC(=O)c1nc(-c2cc3cn(C)nc3c(F)c2O)nc2ccc(N3CCNCC3)cc12` [Compound 513, 1-(2-(7-fluoro-6-hydroxy-2-methyl-2H-indazol-5-yl)-6-(piperazin-1-yl)quinazolin-4-yl)ethan-1-one 2,2,2-trifluoroacetate], the IC50 in assay [1] and in assay [2] was 1000 to 10000 nM in each case.

Regarding `Cn1cc2cc(-c3nc(C#N)c4cc(N5CCNCC5)ccc4n3)c(O)c(F)c2n1` [Compound 514, 2-(7-fluoro-6-hydroxy-2-methylindazol-5-yl)-6-(piperazin-1-yl) quinazoline-4-carbonitrile; trifluoroacetic acid], the results for the IC50 in assay [1] and in assay [2] were 100 to 1000 nM and 1000 to 10000 nM, respectively.

In the case of `Cc1c(O)c(-c2ccc3cc(N4CCNCC4)cc(F)c3n2)cc2cn(C)nc12` [Compound 515, 5-[8-fluoro-6-(piperazin-1-yl)quinolin-2-yl]-2,7-dimethylindazol-6-ol], the IC50 is below 100 nM in assay [1] and 100 to 1000 nM in assay [2].

In the case of `Cn1cc2cc(-c3ccc4cc(N5CCNCC5)cc(F)c4n3)cc(F)c2n1` [Compound 516, 8-fluoro-2-(7-fluoro-2-methylindazol-5-yl)-6-(piperazin-1-yl)quinoline], the IC50 in assay [1] and in assay [2] was 100 to 1000 nM each time.

`Cc1cn2cc(-c3ccc4cc(N5CCNCC5)cc(F)c4n3)cc(F)c2n1` [Compound 517, 8-fluoro-2-{8-fluoro-2-methylimidazo[1,2-a]pyridin-6-yl}-6-(piperazin-1-yl)quinoline]: the IC50 in assay [1] and in assay [2] was 100 to 1000 nM in each case.

For `Cn1cc2cc(-c3nc(C4CC4)c4cc(N5CCNCC5)ccc4n3)c(O)c(F)c2n1` [Compound 518, 5-[4-cyclopropyl-6-(piperazin-1-yl)quinazolin-2-yl]-7-fluoro-2-methylindazol-6-ol; trifluoroacetic acid], the values for the IC50 in assay [1] and in assay [2] were 1000 to 10000 nM and above 10000 nM, respectively.

Regarding `Cc1c(O)c(-c2nc(-c3cncs3)c3cc(N4CCNCC4)ccc3n2)cc2cn(C)nc12` [Compound 519, 2,7-dimethyl-5-[6-(piperazin-1-yl)-4-(1,3-thiazol-5-yl)quinazolin-2-yl]indazol-6-ol], the IC50 is 1000 to 10000 nM in assay [1] and above 10000 nM in assay [2].

For the compound `Cc1c(O)c(-c2ncc3cc(N4CCNCC4)ccc3n2)cc2cn(C)nc12` [Compound 520, 2,7-dimethyl-5-[6-(piperazin-1-yl)quinazolin-2-yl]indazol-6-ol], the IC50 in assay [1] lay within 100 to 1000 nM; in assay [2], 1000 to 10000 nM.

As for `Cc1c(O)c(-c2nc(-c3nnc[nH]3)c3cc(N4CCNCC4)ccc3n2)cc2cn(C)nc12` [Compound 522, 2,7-dimethyl-5-[6-(piperazin-1-yl)-4-(4H-1,2,4-triazol-3-yl)quinazolin-2-yl]indazol-6-ol; bis(trifluoroacetic acid)], the results for the IC50 in assay [1] and in assay [2] were 1000 to 10000 nM and above 10000 nM, respectively.
